Laboratory results published in paper PMC8708600, “Depth of the Steroid Core Location Determines the Mode of Na,K-ATPase Inhibition by Cardiotonic Steroids” (International Journal of Molecular Sciences, 2021).
“And” between values parts separate entries of the source, which are not always exact repeats. Equal values may be shown once. “Also recorded” adds a separate entry of the source. Read-outs that look alike come from different tables or passages of the source.

What was measured:
[1] = target: T1, α1S-Na,K-ATPase in E2P-conformation (Sus scrofa, UniProt P05024); test: biochemical; format: binding, pig
T1 construct: In contrast to α1S-NKA from pig kidneys; from tissue; host or cells: pig kidney
Protocol: (§1) The thermodynamic parameters of CTSs’ binding to the pig and rat NKA were measured using the MicroCal iTC200 instrument (MicroCal, Northampton, MA, USA), as described earlier. α1S-NKA (pig) was transferred into E2P-conformation in the following way: enzyme preparations (5 mg) were suspended in 3 mL of buffer 10 mM imidazole, 3 mM Tris/Pi (pH 7.4), 1 mM EDTA, 0.1 mM DTT and 3 mM MgCl2 (E2P-conformation). DTT was added to the buffer immediately before the experiment. Suspensions of enzymes were centrifuged at 138,000 g for 90 min, and the pellets obtained were suspended in the buffer. α1R-NKA from rat kidneys was transferred into the buffer by dialysis.
(§2) Experiments were carried out at 37 °C. CTSs were diluted by a buffer that was used for enzyme suspension. Aliquots (2.5 μL) of ligands were injected into a 0.2 mL cell containing the protein solution to achieve a complete binding isotherm. The protein concentration on the cell ranged from 10 to 20 μM, and the ligand concentration in the syringe ranged from 50 to 200 μM. When we used digoxin or marinobufagenin, stock solutions were prepared using 100% DMSO, and then stock solutions were diluted to needed concentrations by the corresponding buffer; after that, aliquots were added to the cell. The medium with a protein of interest contained DMSO in the same concentration.
(§3) The resulting titration curves were fitted using the MicroCal Origin software, assuming one set of binding sites. Affinity constants (Ka) and enthalpy variations (ΔH) were determined, and the Gibbs energy (ΔG) and entropy variations (ΔS) were calculated from the equation:ΔG = −RTlnKa = ΔH – TΔS.

[2] = target: T2, α1R-Na,K-ATPase in E2P-conformation (Rattus norvegicus, UniProt P06685); test: biochemical; format: binding
T2 construct: α1R-NKA from rat kidneys was transferred into the buffer by dialysis; from tissue; host or cells: rat kidney
Protocol: as §1, §2, §3

[3] = target: T3, α1R-Na,K-ATPase from rat kidneys (Rattus norvegicus, UniProt P06685); test: Hydrolytic Na,K-ATPase activity (enzyme coupled assay), CTS in incubation medium; format: biochemical; conditions: for inhibition of α1R-NKA activity (in words): concentration up to 500 μM
T3 construct: α1R-NKA from rat kidneys was transferred into the buffer by dialysis; from tissue; host or cells: rat kidney
Protocol: (§4) NKA activity was estimated as ATP cleavage using the enzyme coupled assay method. Incubation medium (2 mL) contained 130 mM NaCl, 20 mM KCl, 4 mM MgCl2, 3 mM ATP, […] (pH 7.4), 1 mM phosphoenolpyruvate, 0.2 mM NADH, 0.18 MM; NADH and pyruvate kinase (600–1000 units/mL)/lactate dehydrogenase (900–1400 units/mL). […] Incubation was carried out at 37 °C, and the concentration of Na,K-ATPase in the sample was 0.4–0.6 μg/mL. […] To determine IC50, 2 μg NKA was preincubated with CTSs in the incubation medium for 10 min, and after that, the reaction was started by the addition of ATP.
(§5) The plots describing the dependence of the NKA hydrolytic activity on CTSs concentration in the incubation medium were made using the Origin 8.1 program (OriginLab Corp., Northampton, MA, USA). They were fitted by hyperbola. The dependence of the Na,K-ATPase hydrolytic activity on the CTSs’ concentration in the preincubation media was fitted to the Hill 1 function: y=y0+ymax−y0x^n/k^n+x^n, where y—Na,K-ATPase activity; x—concentration of CTS; k—inhibition constant; n—Hill coefficient. Fitting was performed using Origin 8.1 software.

[4] = target: T4, α1S-Na,K-ATPase from pig kidneys (Sus scrofa, UniProt P05024); test: as above; format: biochemical
T4 construct: In contrast to α1S-NKA from pig kidneys; from tissue; host or cells: pig kidney
Protocol: as §4, §5

[5] = target: T5, α1R-Na,K-ATPase from rat kidney in E2P-conformation (Rattus norvegicus, UniProt P06685); format: biochemical
T5 construct: α1R-NKA from rat kidneys was transferred into the buffer by dialysis; from tissue; host or cells: rat kidney
Protocol: (§6) To identify a mode of enzyme inhibition by CTSs after their binding to different enzyme conformations, we preincubated NKA in the medium containing 30 MM imidazole (pH 7.4), 3 mM MgCl2, 3 mM Pi/Tris and 1 mM EDTA (E2P-conformation). Solutions of CTSs were made using 100% DMSO with a final concentration of ouabain 100 mM and digoxin and marinobufagenin at 10 mM. Then an aliquot of the corresponding stock solution was added to the preincubation medium to obtain a final CTSs concentration.
(§7) After enzyme preincubation with different concentrations of CTSs for several minutes, the reaction was started by transferring the aliquot of the solution containing 0.25–2.5 μg of NKA from the preincubation medium into the incubation one. The concentration of CTSs was decreased by this procedure by 50–100 times. […] That time interval was equal to 10 min for E2P-conformation of pig and rat kidney enzymes. The control sample was preincubated under the same conditions with a concentration of DMSO that was added to the experimental medium with the corresponding CTS.
as §5

[6] = target: T6, α1S-Na,K-ATPase from pig kidneys in E2P-conformation (Sus scrofa, UniProt P05024); format: biochemical
T6 construct: In contrast to α1S-NKA from pig kidneys; from tissue; host or cells: pig kidney
Protocol: as §6, §7, §5

[7] = system: NKA from duck salt glands (α1β1-isoform), E2P-conformation; design: method as in PMID 26297827; conditions: cited from earlier work; for Kd: read-out: Kd, binding to E2P-conformation of NKA
NKA in E2P-conformation = target: NKA in E2P-conformation; design: method as in PMID 33318128; conditions: read-out: Kd for binding to E2P-conformation; cited from earlier work
NKA from pig kidneys = conditions: read-out: IC50 measured for the enzyme from pig kidneys; cited from earlier work
renal epithelial cells = system: renal epithelial cells; design: method as in PMID 15494417; conditions: ion transport by NKA inhibited by 50% at these concentrations; cited from earlier work
[8] = ITC, E2P-conformation, pH 7.4, 37 °C
[9] = ITC, E2P-conformation, pH 7.4, 37 °C, calculated as Kd = 1/Ka, read-out: Kd (dissociation constant)
[10] = ITC, pH 7.4, 37 °C, ΔG = −RTlnKa
[11] = ITC, E2P-conformation, pH 7.4, 37 °C, nd = not detected
[12] = CTS in incubation medium, 37 °C, hyperbola fit, read-out: IC50, inhibition of α1S-NKA hydrolytic activity
[13] = as restated in discussion, read-out: IC50 evaluated in our experiments
[14] = after preincubation with enzyme in E2P-conformation and dilution

In the case of `C[C@@H]1O[C@@H](O[C@H]2C[C@@H](O)[C@]3(CO)[C@H]4[C@H](O)C[C@]5(C)[C@@H](C6=CC(=O)OC6)CC[C@]5(O)[C@@H]4CC[C@]3(O)C2)[C@H](O)[C@H](O)[C@H]1O` [ouabain], the “Ka (association constant)” value [1, 8] is reported as 1.9e+07 M⁻¹, the “TΔS (entropy variation)” value [1, 8] is reported as -11.3 kcal/mol and the “n (reaction stoichiometry)” value [1, 8] is reported as 0.7 ± 0.2. The “ΔH (enthalpy variation)” value [1, 8] was -21.6 ± 0.7 kcal/mol and -21.6 kcal/mol, the Kd [1, 9] was 0.053 µM and the “ΔG (Gibbs energy)” value [1, 10] was -10.3 kcal/mol. For the same compound, the “entropy component (−TΔS)” value ([2]; ITC, 37 °C) was -3.4 kcal/mol, the “TΔS (entropy variation)” value [2, 8] was 3.4 kcal/mol and the Kd [2, 9] was 3.23 µM. The “Ka (association constant)” value [2, 11] was 3.1 × 10^5 * M^−1, the “n (reaction stoichiometry)” value [2, 11] was 0.6 ± 0.1 and the “ΔH (enthalpy variation)” value [2, 11] was -4.3 ± 0.7 kcal/mol and -4.3 kcal/mol. For the same compound, the “ΔG (Gibbs energy)” value [2, 10] was -7.7 kcal/mol, the “ouabain affinity for α1R-NKA lower than for α1S-NKA” value ([2]; ITC, α1R versus α1S) was 60 times and the IC50 ([3]; CTS in incubation medium, 37 °C, hyperbola fit, read-out: IC50, inhibition of rat enzyme (α1R-NKA) hydrolytic activity) was 140 µM. The IC50 [4, 12] was 2 µM, the IC50 [4, 13] was 0.8 µM and the “mode of interaction with α1R-NKA (in words)” value ([5]; after preincubation with enzyme and dilution) was “reversibly; also recorded: reversible”. For the same compound, the Hill coefficient ([6]; CTS in preincubation medium, 40 nM of the enzyme) was 1.89 ± 0.14, the Hill coefficient ([6]; CTS in preincubation medium, 80 nM of the enzyme) was 1.96 ± 0.19 and the Hill coefficient ([6]; CTS in preincubation medium, 400 nM of the enzyme) was 1.91 ± 0.09. The “mode of α1S-NKA inhibition (in words)” value [6, 14] was “pseudo-irreversible inhibitors”, the “higher affinity of ouabain binding in comparison to marinobufagenin” value ([7]; E2P-conformation) was 17 fold and the Kd [7] was 0.1 µM. For the same compound, the Kd (NKA in E2P-conformation) was 0.088 µM, the IC50 (NKA from pig kidneys) was 0.9 µM and the “concentration inducing renal epithelial cells death” value (renal epithelial cells) was roughly 0.1 µM.
With `C[C@]12CC[C@H](O)C[C@@]1(O)CC[C@@H]1[C@@H]2CC[C@]2(C)[C@@H](c3ccc(=O)oc3)C[C@H]3O[C@]132` [marinobufagenin] the “entropy component (−TΔS)” value ([1]; ITC, 37 °C) was -2.8 kcal/mol, the “affinity of α1S-NKA for marinobufagenin lower than that for digoxin” value ([1]; ITC, E2P-conformation, 37 °C) was roughly 11 times and the “affinity of α1S-NKA for marinobufagenin lower than that for ouabain” value ([1]; ITC, E2P-conformation, 37 °C) was “about 44 times”. For the same compound, the “Ka (association constant)” value [1, 8] was 4.3 × 10^5 * M^−1, the “TΔS (entropy variation)” value [1, 8] was 2.8 kcal/mol and the “n (reaction stoichiometry)” value [1, 8] was 1.7 ± 0.2. For the same compound, the “ΔH (enthalpy variation)” value [1, 8] was -5.2 ± 0.3 kcal/mol, the Kd [1, 9] was 2.32 µM and the “ΔH (enthalpy variation)” value ([1]; ITC, E2P-conformation, pH 7.4, 37 °C, listed as MBG) was -5.2 kcal/mol. For the same compound, the Kd ([1]; ITC, Table 1 value as quoted in discussion, read-out: Kd for binding to E2P-conformation) was 2.3 µM, the “ΔG (Gibbs energy)” value [1, 10] was -7.9 kcal/mol and the “binding of α1R-NKA to CTS (in words)” value ([2]; ITC, association constants below 2 × 10^4 M^−1 cannot be measured) was “no measurable binding”. For the same compound, the “inhibition of α1R-NKA activity (in words)” value [3] was “does not inhibit this isoform at all”, the “inhibition of α1R-NKA activity (in words)” value ([3]; listed as Marinobufagenin) was “does not inhibit” and the IC50 [4, 12] was 0.8 µM. The IC50 [4, 13] was 1.2 µM, the “mode of α1S-NKA inhibition (in words)” value [6, 14] was “reversible inhibitor; also recorded: reversibly” and the Kd [7] was 1.7 µM. The IC50 (NKA from pig kidneys) was 1.5 µM and the “concentration inducing renal epithelial cells death” value (renal epithelial cells) was “about 1 μM”.
With `C[C@H]1O[C@@H](O[C@H]2[C@@H](O)C[C@H](O[C@H]3[C@@H](O)C[C@H](O[C@H]4CC[C@@]5(C)[C@H](CC[C@@H]6[C@@H]5C[C@@H](O)[C@]5(C)[C@@H](C7=CC(=O)OC7)CC[C@]65O)C4)O[C@@H]3C)O[C@@H]2C)C[C@H](O)[C@@H]1O` [digoxin] the “entropy component (−TΔS)” value [1] was -2.0 kcal/mol, the “TΔS (entropy variation)” value ([1]; pH 7.4) was 2.0 kcal/mol and the “n (reaction stoichiometry)” value ([1]; pH 7.4) was 0.5 ± 0.1. For the same compound, the “ΔG (Gibbs energy)” value ([1]; pH 7.4) was -9.9 kcal/mol, the “ΔH (enthalpy variation)” value ([1]; pH 7.4) was -7.9 ± 0.6 kcal/mol and -7.9 kcal/mol and the “binding of α1R-NKA to CTS (in words)” value [2] was “no measurable binding”. It also gave an IC50 [3] of 250 µM, an IC50 ([4]; IC50, inhibition of α1S-NKA hydrolytic activity) of 1.2 µM and an IC50 ([4]; IC50 evaluated in our experiments) of 2 µM. The “mode of interaction with α1R-NKA (in words)” value [5] was “reversible”, the Hill coefficient [6] was 1.90 ± 0.21 and 1.70 ± 0.33 and 1.99 ± 0.27 and the “mode of α1S-NKA inhibition (in words)” value [6] was “pseudo-irreversible inhibitors”. The Kd (NKA in E2P-conformation) was 0.126 µM and the IC50 (NKA from pig kidneys) was 1.95 µM.
For `C[C@]12CC[C@H](O)C[C@H]1CC[C@@H]1[C@@H]2CC[C@]2(C)[C@@H](c3ccc(=O)oc3)CC[C@]12O` [bufalin], the Kd (NKA in E2P-conformation) is given as 0.125 µM and the IC50 (NKA from pig kidneys) is given as 0.11 µM.
